The values below come from publication PMC4369170 (ACS chemical biology, 2015).

The test system of assay [1] is fui1Δ::PfENT1-HA-CO strain. Kind of assay: 5-FUrd growth inhibition of PfENT1-HA-CO expressing fui1Δ yeast. The assay is classed as cell-based. The conditions noted are these: Saccharomyces cerevisiae, read-out: 5-FUrd IC50, yeast cell growth, growth assessed by OD600.
Assay [2] concerns the target T1, PfENT1 (Plasmodium falciparum, UniProt Q8IDM6). The assay is classed as cell-based.
In assay [3] the target is T1, PfENT1. Kind of assay: cell-based. The conditions noted are these: 125 µM 5-FUrd.
The subject of assay [4] is chloroquine-resistant Dd2 parasites. The assay is described as follows: Dd2 parasite viability / proliferation. The assay is classed as cell-based, Plasmodium falciparum. The following applies: for IC50: Plasmodium falciparum, DD2, read-out: IC50 Dd2 parasite viability – high purine media; for IC50 with xanthine as purine source versus hypoxanthine: WT Dd2, 90 µM xanthine vs 10 µM hypoxanthine as sole purine source.

Assay [5] has as its system PfENT4. Kind of assay: [14C]2-deoxyadenosine uptake into PfENT4-expressing Xenopus oocytes. The class given is cell-based, Plasmodium falciparum. The conditions noted are these: concentrations up to 50 µM.
For assay [6], the system named is P. falciparum 3D7 strain. The assay is described as follows: 3D7 parasite viability / proliferation, 72-h growth assay. The conditions noted are these: ~10× the IC50 concentration; first 24 h of culture.
For assay [7], the target named is T1, PfENT1. The assay is described as follows: [3H]adenosine uptake into ade2Δ + PfENT1-CO yeast. The class given is cell-based.
Assay [8] deals with T1, PfENT1. The assay is classed as cell-based. The conditions noted are these: each compound at 10 µM; 125 µM 5-FUrd.
The target in assay [9] is T1, PfENT1. The conditions noted are these: cited from earlier work.
Where [10] appears, read: EC50 5-FUrd growth rescue of fui1Δ::PfENT1-HA-CO, mean ± SD, N ≥ 3.

In general, IC50 refers to the concentration that gives 50% inhibition. The EC50 is the concentration at which the effect is half-maximal.

Read-outs that look alike come from different tables or passages of the source.

T1 sequence (Q8IDM6 whole entry): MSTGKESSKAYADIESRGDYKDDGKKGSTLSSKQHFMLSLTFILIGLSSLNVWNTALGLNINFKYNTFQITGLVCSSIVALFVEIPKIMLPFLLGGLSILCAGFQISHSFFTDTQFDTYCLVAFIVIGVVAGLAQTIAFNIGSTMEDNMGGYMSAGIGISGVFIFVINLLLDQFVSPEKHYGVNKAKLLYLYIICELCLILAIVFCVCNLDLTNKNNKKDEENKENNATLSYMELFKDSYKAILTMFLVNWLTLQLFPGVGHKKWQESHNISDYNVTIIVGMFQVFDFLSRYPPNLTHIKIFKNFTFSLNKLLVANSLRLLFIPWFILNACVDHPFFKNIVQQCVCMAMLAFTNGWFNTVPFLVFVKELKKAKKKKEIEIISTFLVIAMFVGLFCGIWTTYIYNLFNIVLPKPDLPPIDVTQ

`O=c1[nH]c(=O)n([C@@H]2O[C@H](CO)[C@@H](O)[C@H]2O)cc1F` [5-FUrd, 5-fluorouridine]: the 50% inhibitory concentration (IC50) in assay [1] was 7 ± 2 µM.
In the case of `O=C(Nc1ccc2nc(NC(=O)c3ccco3)sc2c1)c1ccco1` [Compound 1, N,N'-1,3-benzothiazole-2,6-diyldi(2-furamide)], the IC50 came out at 0.2 ± 0.1 µM in assay [2] and 25.8 ± 1.3 µM in [4]. For the same compound, the half-maximal effective concentration (EC50) in [3] (setting [10]) stood at 0.8 µM. Further, the “IC50 with xanthine as purine source versus hypoxanthine” value in [4] is on record as “significantly lower”.
Taken in the same sequence, the figures for `O=C(Nc1ccc(-c2nc3ncccc3o2)cc1)c1ccccc1Br` [Compound 2, 2-bromo-N-(4-[1,3]oxazolo[4,5-b]pyridin-2-ylphenyl)benzamide] were 2.1 ± 0.9 µM, 52.4 ± 5.7 µM, 6 ± 1.7 µM and “significantly lower”.
Regarding `COc1cc(COc2ccc3c(C)cc(=O)oc3c2)cc(OC)c1OC` [Compound 3, 4-methyl-7-[(3,4,5-trimethoxybenzyl)oxy] -2H-chromen-2-one], the figures for the concentration for half-maximal inhibition (IC50) in assay [2] and in assay [4] were 0.6 ± 0.1 µM and 36.2 ± 6 µM, respectively. Also, in assay [5], the “inhibition of [14C]2-deoxyadenosine uptake” value is reported as “did not inhibit”. Besides, the EC50 in [3] (setting [10]) was 2.3 ± 0.9 µM. Further, the “parasite stage progression (microscopy)” value in assay [6] was “failed to progress beyond the ring stage”. Also, in assay [4], the “IC50 with xanthine as purine source versus hypoxanthine” value is listed as “significantly lower”.
For `O=C(Nc1ccc(-c2nnc(-c3ccco3)o2)cc1)c1ccco1` [Compound 4, N-{4-[5-(2-furyl)-1,3,4-oxadiazol-2-yl]phenyl}-2-furamide], the IC50 worked out at 1.7 ± 0.4 µM in assay [2] and 15.3 ± 2.7 µM in assay [4]. Further, the response in [3] (setting [10]) was half-maximal at 5.7 ± 0.8 µM (EC50).
Compound `Cn1cc(C(=O)C(=O)Nc2ccc(C(=O)N3CCCC3)cc2)c2ccccc21` [Compound 5, 2-(1-methyl-1H-indol-3-yl)-2-oxo-N-[4-(pyrrolidin-1-ylcarbonyl)phenyl]acet amide] showed an IC50 in [2] of 2 ± 0.01 µM. In [3] (setting [10]), this compound returned an EC50 of 6.5 ± 1.5 µM. Also, in assay [4], the IC50 is 28.9 ± 2.6 µM and the “IC50 with xanthine as purine source versus hypoxanthine” value was “significantly lower”.
Consider `O=C(Nc1cccc(-c2nc3ncccc3o2)c1)c1cccc(F)c1` [Compound 6, 3-fluoro-N-(3-[1,3]oxazolo[4,5-b]pyridin-2-ylphenyl)benzamide], for which the values for the half-maximal inhibitory concentration (IC50) in [2] and in assay [4] were 1.1 ± 0.1 µM and 38.8 ± 4.9 µM, respectively. The EC50 in assay [3] (setting [10]) came out at 5.7 ± 1.3 µM.
Regarding `COc1ccccc1C(=O)Nc1cccc(-c2nc3ncccc3o2)c1` [Compound 7, 2-methoxy-N-(3-[1,3]oxazolo[4,5-b]pyridin-2-ylphenyl)benzamide], the IC50 was found to be 1.6 ± 0.01 µM in assay [2] and 31 ± 0.6 µM in assay [4]. Also, the EC50 in assay [3] (setting [10]) was 6.4 ± 0.9 µM.
In the case of `Cc1ccccc1/C=C/c1nc2ccccc2c(=O)[nH]1` [Compound 13, 2-[2-(2-methylphenyl)vinyl]-4(3H)-quinazolinone], the IC50 in [7] was 0.0039 ± 0.0016 µM; in assay [2] it was 0.6 ± 0.1 µM; in [4], 2.6 ± 0.2 µM. Besides, the EC50 in [3] (setting [10]) stood at 4.7 ± 2.9 µM.
Turning to `O=C(Nc1ccc(Cl)c(-c2nc3ncccc3o2)c1)c1cccs1` [Compound 19, N-(4-chloro-3-[1,3]oxazolo[4,5-b]pyridin-2-ylphenyl)-2-thiophenecarboxamide], the IC50 in assay [2] amounted to 1.7 ± 0.2 µM; in assay [4] it was 37.4 ± 1.6 µM. The same compound returned an EC50 in assay [3] (setting [10]) of 5.4 ± 0.8 µM.
Turning to `OC[C@H]1O[C@@H](n2cnc3c(O)ncnc32)[C@H](O)[C@@H]1O` [Inosine, inosine, reference compound], the EC50 came to 3300 ± 200 µM in assay [3] (EC50 rescue of fui1Δ::PfENT1-HA-CO strain growth, OD600) and 5600 ± 2100 µM in [3] (EC50 rescue of fui1Δ::PfENT1-HA-CO strain growth, fluorescence).
On to `OCCN(CCO)c1nc(N2CCCCC2)c2nc(N(CCO)CCO)nc(N3CCCCC3)c2n1` [dipyridamole], for which the “HTS outcome (positive = growth > four SD above no-growth control)” value in assay [8] is recorded as “not positive”. The “block of PfENT1” value in [9] was “do not block”.
For the compound `O=[N+]([O-])c1ccc(CSc2ncnc3c2ncn3C2OC(CO)C(O)C2O)cc1` (stereo not shown) [nitrobenzylthioinosine], the “block of PfENT1” value in [9] is “do not block”.
